# Test results taken from US10464957B2, “Oxidized lipids and methods of use thereof” (Vascular Biogenics Ltd., priority 2014, dated 2019).
# Legend:
# [1] = tested on: livers taken from NASH-induced mice; test: Q-PCR of inflammation mediators in livers of NASH-induced mice; type: in vivo; details: VB-703 4 mg/kg, Q-PCR normalized to GAPDH
# Method: Neonatal male mice exposed to low-dose streptozotocin (STZ) develop liver steatosis with diabetes. Continuous high fat diet (HFD) increases lobular inflammation with foam cell-like macrophages, showing nonalcoholic steatohepatitis (NASH) pathology. NASH was induced in 40 male mice by a single subcutaneous injection of 200 μg per mouse of STZ two days after birth and feeding HFD [57 kcal % fat]) from four weeks of age. Vehicle, VB-703 (4 mg/kg), or telmisartan (10 mg/kg) as positive control, were administered once daily for three weeks, starting from six weeks of age. Mice were sacrificed at nine weeks of age.
# RNA was prepared from livers from normal mice and NASH-induced mice treated with vehicle, VB-703, or telmisartan, using RNeasy mini kit (Qiagen). For cDNA preparation, 2 μg of RNA was combined with qScript reaction mix and qScript Reverse Transcriptase (Quanta BioSciences) for 5 min at 22° C. and then for 30 min at 42° C. Reaction was ended by incubation for an additional 5 min at 85° C. All real time PCR reactions were performed using the 7300 Real Time PCR System (Applied Biosystems). Q-PCR with mouse ready set of probe with primer was used for IL-1β, IL-12/23p40 and MCP-1 (Applied Biosystems). GAPDH was used to normalize RNA levels.
# nephrectomized rats = test: 5/6 nephrectomy chronic renal disease rat model (focal and segmental glomerulosclerosis); type: in vivo, Sprague Dawley (SD) Rats
# Method: Male Sprague Dawley (SD) Rats (Harlan Laboratories, Israel) with an initial weight of 200 g were housed 2-3 per cage in IVC cages in dedicated HVAC (heat, ventilation, air conditioning animal facility at a temperature of 22±2° C. and RH (relative humidity) of 55±15%). Temperature and humidity were monitored continuously. The facility had no exposure to outside light and was maintained on automatic alternating cycles of 12 hours of light and 12 hours of dark. Animals were provided with a commercial rodent diet (Harlan Teklad TRM Rat/Mouse Diet) ad libitum and allowed free access to autoclaved water, supplied to each cage via polysulphone bottles with stainless steel sipper tubes. All animal work was approved by the Animal Care and Use Committee of Israel (IL-13-03-027).
# Rats were divided into three groups: (1) Healthy rats (n=3) in group A, (2) Sham group—subjected to chirurgical process but without kidney mass reduction (n=3) in group B, and (3) the rest were induced with chronic renal failure (n=32). Chronic renal failure was induced by a two stage (5/6) nephrectomy (Nx), with subtraction firstly of about ⅔ of the left kidney by left flank incision and, one week later, complete removal of the right kidney. General anesthesia consisted of intraperitoneal injection of ketamine 100 mg/kg and xylazine 20 mg/kg (0.85 ml ketamine+0.15 ml xylazine for each ml preparation; 1 μl/g BW was injected I.P).
# One week following the second surgery, rats were randomly assigned to the following experimental groups:
# Nephrectomized, orally administered with VB-703 4 mg/kg (n=8); and
# Nephrectomized, orally administered with telmisartan 10 mg/kg as positive control (n=8).
# Body weight (BW) was monitored throughout the study and rats were treated by oral gavage according to their body weight for 7 weeks. Rats were sacrificed by CO2 inhalation 8 weeks from removal of the right kidney (2nd surgery).
# Proteinuria and albuminuria was determined in urine specimens, collected during a 24-hour period, from animals housed in cages at 4 weeks (3 w of treatment) and 8 weeks (7 w of treatment) after the subtotal nephrectomy (2nd surgery). Urine samples were analyzed for: glucose, urea, sodium, potassium, creatinine, total protein, and albumin.
# Upon sacrifice, at 8 weeks, kidneys were collected, weighed and fixed in 4% formaldehyde.
# For light microscopy, paraffin-embedded tissue slides of 4 μm were stained with Periodic Acid-Schiff (PAS) reagent, Masson's Trichrome and Hematoxylin & Eosin.
# Glomerular sclerosis index. Glomerulosclerosis was assessed by PAS-stained sections using a semiquantitative scoring system. The extent of glomerulosclerosis was evaluated by examining mostly 100 randomly selected glomeruli at a magnification of ×400 and applying a score system according to the percentage of sclerosed glomerular area. The score was graded from 0 to 4: (0=0% area; 1=1-25%; 2=26-50%, 3=51-75%, 4=76% and above). The mean of all scored glomeruli was presented. Moreover, the extent of global and segmental glomerulosclerosis was evaluated in the same glomeruli, where <80% sclerosis was referred to as segmental and >80% was referred to as global.
# Glomerular area. The glomerular area of mostly 100 randomly selected glomeruli at a magnification of ×100 was quantitated by counting squares covered by glomeruli area using a grid and the mean glomeruli area was calculated.
# Renal tissues were fixed in 4% formaldehyde and embedded in paraffin. The paraffin-embedded tissues were then cut to form tissue slides of 4 μm. Immunohistochemistry of the paraffin-embedded tissue slides was analyzed using antibodies in the following concentration: monoclonal mouse anti rat CD-68 (ED-1, Serotec MCA341) 1:25. For quantitation of interstitial CD68+ staining, the number of positive cells was counted in 20 randomly selected non-overlapping fields per animal, and the mean value was presented. […]
# [2] = tested on: kidney of nephrectomized rats; test: Real-time PCR of pro-fibrotic markers in kidney of nephrectomized rats; type: in vivo, Sprague Dawley (SD) Rats
# Method: Kidney RNA was extracted with an RNeasy Fibrous Tissue Mini kit (Qiagen) and after DNAse I treatment, single-stranded cDNA was synthesized from 2 μg total RNA using the qScript cDNA Synthesis Kit (Quanta Biosciences) and diluted for real-time PCR. The expression of collagen 4α, fibronectin and TGFβ was quantified using the 7300 Real Time PCR System (Applied Biosystems). The assay was performed according to manufacturer instructions using the primers (Assay ID) represented at the table below supplied by Applied Biosystems. Data were normalized to the reference gene TATA box Binding Protein (TBP) and presented as relative mRNA levels compared with Sham PBS 0.5% Eth treatment (Table 1).
# [3] = Nx rats, VB-703 4 mg/kg, Telmisartan 10 mg/kg, 8 weeks, Mean ± S.E
# [4] = VB-703 4 mg/kg, telmisartan 10 mg/kg, oral 7 weeks, vs Nx PBS 0.5% Eth
# [5] = compared to Nx PBS 0.5% Eth treatment, VB-703 4 mg/kg, telmisartan 10 mg/kg
# [6] = normalized to TBP, relative to Sham PBS 0.5% Eth, mean±SEM
smiles,measurement,setting,value
"CCCCCCCCCCC(CCCCCCCC)COC[C@H](COP(=O)([O-])OCC[n+]1ccccc1)OCCCCC(=O)O (stereo partly drawn) [VB-703, (R)-1-(2′-octyl)dodecyl-2-(4′-carboxy)butyl-sn-glycero-3-phosphoric acid pyridiniumethyl ester]",expression of IL-10 in livers,[1],significantly inhibited
same,expression of IL-12/23p40 in livers,[1],significantly inhibited
same,expression of the chemokine MCP-1 in livers,[1],significantly inhibited
same,Glomerular sclerosis Global %,nephrectomized rats; [3],1.9 ± 1.55%
same,Glomerular sclerosis Global & Segmental %,nephrectomized rats; [3],24.7 ± 3.77%
same,Glomerular sclerosis Segmental %,nephrectomized rats; [3],22.9 ± 2.83%
same,urinary albumin/creatinine/day ratio,"nephrectomized rats; VB-703 4 mg/kg oral, at the termination of the study (8 weeks)",significantly improved
same,glomerular and interstitial monocyte/macrophage infiltration (CD68 positive cells),"nephrectomized rats; VB-703 4 mg/kg, telmisartan 10 mg/kg, 8 weeks",did not produce a significant effect
same,reduction of damaged glomeruli percent,nephrectomized rats; [4],38%
same,reduction of sclerotic glomeruli,nephrectomized rats; [4],49%
same,reduction of Collagen IV expression,[2]; [5],51%
same,reduction of TGF-β expression,[2]; [5],42%
same,reduction of fibronectin expression,[2]; [5],47%
same,Collagen IV mRNA expression (relative mRNA level),[2]; [6],3.7±0.52
same,TGF-β mRNA expression (relative mRNA level),[2]; [6],4.8±0.32
same,fibronectin mRNA expression (relative mRNA level),[2]; [6],6.7±0.98
